Assay results as given in patent US5773236A, “Assay for glutathiane transferase using polyhaloaryl-substituted reporter molecules” (Molecule Probes, Inc., priority 1997, dated 1998).

How the values were obtained:
β-galactosidase = experiment: Glycosidase analysis in vitro (Example 60); format: biochemical; conditions: substrate 333 μM, room temperature, 20 minutes
Protocol: The stock reagents required are: 1) Compound 9 (Example 7) 5 mM in ethanol; 2) Reaction buffer: 0.3M potassium phosphate, 3 mM MgCl2 pH 7.5; 3) β-galactosidase (Boehringer-Mannheim), dissolved at 10 mg/mL in 0.05M potassium phosphate, pH 7; 4) Enzyme diluent: 0.01M Tris HCl, 0.01M MgCl2, 0.01M NaCl, 0.01M β-mercaptoethanol, pH 7.5. 130 μL of the reaction buffer is added to a series of rows and columns in a microplate. To each of the wells with reaction buffer is added 10 μL of the substrate solution. The enzyme stock solution is diluted to 1 mg/mL, 0.1 mg/mL, 10 μg/mL, 1 μg/mL, 0.1 μg/mL and 0 μg/mL. To the wells containing reaction buffer and substrate, 10 μL of each of the different concentration enzyme solutions is added. The wells containing 0 μg/mL enzyme serve as controls. The plate is allowed to incubate at room temperature for 20 minutes. Fluorescence of each well is determined using a 485 nm excitation filter, a 530 nm emission filter and gain setting of 40. Using the above conditions, as little as 6.7 ng/mL enzyme can be detected using the substrate at 333 μM concentration. The fluorescence response is linear until the enzyme concentration reaches ~6.7 μg/mL.

[1] = tested on: NIH-3T3 cells (lacZ negative); experiment: β-galactosidase activity detection in cells by microscopy, lacZ negative (Example 61); format: cell-based; conditions: 50 nM, 37° C., 35 minutes
Protocol: (§1) NIH-3T3 cells (lacZ negative) and CRE BAG 2 cells (lacZ positive) are obtained from American Type Culture Collection Co., Rockville, Md. They are grown in a humidified atmosphere of 5% CO2 in D-MEM supplemented with 10% bovine calf serum, 50 μg/mL gentamycin, 300 μg/mL L-glutamine and 10 mM HEPES, pH 7.4. A 50 μM stock solution of Compound 9 is prepared in water: dimethylformamide (DMF) (1:1). NIH-3T3 and CRE BAG 2 cells are trypsinized, washed and suspended in D-MEM containing 10% BCS. 10 μL of the cell suspension is added to 0.989 mL of the same medium. 1 μL of the 50 μM substrate solution is added to the cells to obtain a final concentration of 50 nM. Incubation is carried out at 37° C. for 35 minutes. Cells are centrifuged to form a pellet, supernatant is discarded and cells are resuspended in D-MEM with 10% BCS. Cells are mounted on slides and observed by fluorescence microscopy.

β-D-galactosidase = experiment: Detection of β-D-galactosidase on a membrane blot (Example 64); format: biochemical; conditions: nitrocellulose, room temperature, 1 hour plus 30 minutes
Protocol: The reagents used are: 1) Compound 9, 5 mM in ethanol; 2) β-D-galactosidase, 10 mg/mL in 0.05M potassium phosphate, pH 7; 3) Enzyme diluent: 0.01M Tris, 0.01M MgCl2, 0.01M mercaptoethanol, 0.01M NaCl, 1% BSA, pH 7.5; 4) 1% BSA in PBS, pH 7.2; 5) Reaction buffer: 0.3M potassium phosphate, 3 mM MgCl2, pH 7.5; 6) Wash buffer: 20 mM Tris, 137 mM NaCl, 0.5% Tween 20, pH 7.5. A stock solution of β-galactosidase is diluted in enzyme diluent to obtain solutions with the following concentrations: 1 μg/μL, 0.1 μg/μL, 0.01 μg/μL, 1 ng/μL, 0.1 ng/μL and 0 ng/μL. 1 μL of each diluted solution is spotted on a two nitrocellulose membranes (1"×1"), pore size 0.45 μM, and dried immediately by blowing argon on the membranes. One of the membranes is blocked by treatment with 1% BSA in PBS for 20 minutes at room temperature. The following mixture is prepared: 4.95 mL of reaction buffer+[…] of Compound 9 stock solution. 2 mL of this solution is added to each of the blots and incubation is carried out at room temperature for 1 hour. The blots are washed once with 2 mL of wash buffer. 0.5 mL of the mixture described above is once again added to the blots and incubation is carried out at room temperature for 30 minutes. The blots are allowed to dry and an image is obtained by illuminating with reflected UV light at 254 nm. […]

[2] = tested on: CRE BAG 2 cells (lacZ positive); experiment: β-galactosidase / lacZ detection in cells by microscopy, lacZ positive (Example 61); format: cell-based; conditions: 50 nM, 37° C., 35 minutes
Protocol: as §1

O=C1OC2(c3ccc(O[C@@H]4O[C@H](CO)[C@H](O)[C@H](O)[C@H]4O)cc3Oc3cc(O[C@@H]4O[C@H](CO)[C@H](O)[C@H](O)[C@H]4O)ccc32)c2ccc(NC(=O)c3c(F)c(F)c(F)c(F)c3F)cc21 [Compound 9, 5-(pentafluorobenzoylamino)fluorescein di-β-D-galactopyranoside]
enzyme concentration up to which fluorescence response is linear (β-galactosidase): ~ 6.7 μg/mL | lowest enzyme concentration detected (β-galactosidase): 6.7 ng/mL | staining of cells, fluorescence microscopy [1]: green fluorescent lysosomes with very little cytoplasmic background | amount of enzyme detected (β-D-galactosidase): ~ 100 ng | staining of cells, fluorescence microscopy [2]: green fluorescent lysosomes with well-stained green fluorescent cytoplasm
